Results published in PMC9794991, “Evaluation of analogs of mutacin 1140 in systemic and cutaneous methicillin-resistant Staphylococcus aureus infection models in mice” (Frontiers in Microbiology, 2022).
≈ marks a conversion by molar mass, not a printed value. Where “and” joins values, the source holds several entries; their conditions need not be identical. Identical values can stand only once. Counter-ions that a name gives are not always drawn. Like-named read-outs stand apart in the source and are kept apart here.

How the values were obtained:
[1] = test system: S. aureus ATCC 33591 (MRSA); assay: MIC in broth (CLSI M07-A8) against MRSA 33591; type: cell-based, Staphylococcus aureus
Protocol: (§1) Preparation of the antimicrobial agent and bacterial inoculum for MICs was performed by following the method described by the Clinical and Laboratory Standards Institute (CLSI; M07-A8; [CLSI, 2018]) and as previously reported by our group ([Chen et al., 2013]; [Escano et al., 2017]; [Geng and Smith, 2018]). […] A single colony from an overnight culture of S. aureus was inoculated in 10 ml of THyex broth (30 g/L Todd Hewitt broth, 3 g/L yeast extract). The inoculum was placed in a shaking incubator at 37°C and 280 rpm and grown to an OD600 of 0.6–0.8. The culture broth was then diluted to an OD600 of 0.132, after which a 20-fold dilution in fresh broth was performed resulting in a ~5 × 10^5 CFU/ml cell density. Mu1140 and Mu1140 analogs were solubilized in dimethyl sulfoxide (DMSO) at a concentration of 1 mg/ml as the stock solution. […] The same volume of DMSO was added to all test samples including the no-drug control. The cultures were placed in a shaking incubator at 37°C and 200 rpm (Stuart orbital incubator SI500). A 100 μl sample from each culture was taken at each time point of 0, 0.25, 0.5, 0.75, 1, 1.5, 2, 4, 8, 18, and 24 h and was serially diluted in fresh medium before being spread on THyex agar plates (30 g/L Todd Hewitt broth, 3 g/L yeast extract, 15 g/L agar) for determining the CFUs. The plates were allowed to grow for 24 h at 37°C before the colony-forming units (CFUs) were counted. The CFU/ml for each time-point at each drug concentration was determined using at least two independent cultures. Plates having 30 to 300 colonies were used for CFU measurements.

[2] = test system: S. aureus ATCC33591 skin infection; assay: Intravenous treatment of an in vivo MRSA acute skin infection; parameters: species or system BALB/c mice
Protocol: Mice were acclimatized to the environment for at least 7 days before initiating experiments. After shaving the hair on the dorsum of the mice, a 50 μl suspension of S. aureus ATCC33591 in PBS, containing 1.5 × 10^7 CFUs, was injected subcutaneously (subq). No bleeding was observed during all injections. […] Mice were separated into four groups (n = 8 for the treatment groups and n = 6 for the control). […] The last group received the no-drug vehicle control (PBS with 5% DMSO). Weights of mice were measured at least once per day, while behavior and the wounds were monitored multiple times per day. Mice were sacrificed approximately 24-h after the last i.v. treatment (Day 6; D6). Dermal tissues at the infected sites were sampled and homogenized in sterile PBS. The homogenates were serially diluted and plated on THyex agar for determining CFUs.

S. aureus ATCC 33591 = assay: Time-kill study (kill kinetics); type: cell-based, Staphylococcus aureus
Protocol: as §1

clinical MRSA isolates = assay: MIC in broth against a panel of clinical MRSA isolates; type: cell-based; details: Staphylococcus aureus
[3] = test system: MRSA (S. aureus ATCC 33591) systemic infection; assay: In vivo MRSA systemic infection model (survival); details: single 10 mg/kg i.v. dose 1 h post-infection
Protocol: The vehicle (saline with 15% DMSO) served as the no-drug control group of mice. Each mouse was monitored every 4 h during the first 2 days post-infection (day 0 to day 2), and every 8 h from day 2 to day 5.

[4] = test system: S. aureus ATCC TCH1516 skin infection; assay: Topical treatment of incision MRSA skin infection (Trial 1); type: in vivo, BALB/c mice; details: for Group mean (±SE) of log CFU/infection site: 10 mg/kg/day topical, twice daily for 6 days from 24 h post-infection, n = 6, vehicle control 5.33 ± 0.64
Protocol: Trial 1: In this trial, the infection model was performed following methods that were previously reported ([Kugelberg et al., 2005]; [Guo et al., 2013]; [Simonetti et al., 2020]). […] Seven groups (n = 6 mice/group) were acclimatized to the environment for at least 7 days before the start of the experiment. Once the hair on the dorsum of the mice was shaved, a 1 cm incision was made and a 50 μl suspension of S. aureus ATCC TCH1516 in PBS, containing 2 × 10^7 CFUs, was applied directly to the incision. Mice were housed individually until inoculum dried at the incision site (Day (D) 0). Approximately 24 h later (D1), treatment was applied topically twice daily for 6 days. […] Another group received the no-drug vehicle control (0.6% noble agar in citrate buffer). Weights of mice were measured at least once per day, while behavior and the wounds were monitored multiple times per day. Mice were sacrificed 1 day after the last topical treatment (D7). Dermal tissues at the infected sites were sampled and homogenized in sterile PBS. The homogenates were serially diluted and plated on THyex agar for determining CFUs.

[5] = test system: S. aureus ATCC33591 skin infection; assay: Subcutaneous treatment of subcutaneous MRSA skin infection (Trial 2); type: in vivo, BALB/c mice; details: three times per day for 3 days from 48 h post-infection, n = 8
Protocol: Trial 2: In this trial, the infection model was performed following methods that were previously reported ([Guo et al., 2013]; [Dejani et al., 2016]). […] Mice were acclimatized to the environment for at least 7 days before initiating experiments. After shaving the hair on the dorsum of the mice, a 50 μl suspension of S. aureus ATCC33591 in PBS, containing 1.5 × 10^7 CFUs, was injected subq (D0). As noted in trial 1, no bleeding was observed during all injections. […] Mice were separated into four groups (n = 8 for treatment and no-drug vehicle control groups; D2). […] The last group received the no-drug vehicle control (sterile water with 20% DMSO). Treatments were administered three times per day to the mice through a 3-point subq injection around the scab with the needle pointed toward the center of the wound. Weights of mice were measured at least once per day, while behavior and the wound sites were monitored multiple times per day. Mice were sacrificed approximately 24-h after the last subq treatment (D6). Dermal tissues at the infected sites were sampled and homogenized in sterile PBS. The homogenates were serially diluted and plated on THyex agar for determining CFUs.

[6] = 10 mg/kg/day i.v. for 5 days, n = 8
[7] = Staphylococcus aureus, MRSA 33591, in broth, read-out: MIC

**Q.** What does the source list for `CN[C@H](CC(C)C)C(=O)N[C@H]1C(=O)N[C@@H](CC(N)=O)C(=O)N[C@H]2C(=O)N[C@H]3C(=O)N[C@H](C(=O)N[C@H](C(=O)O)c4cc(O)cc(O)c4-c4cc3ccc4O)[C@H](O)c3ccc(c(Cl)c3)Oc3cc2cc(c3O[C@@H]2O[C@H](CO)[C@@H](O)[C@H](O)[C@H]2O[C@H]2C[C@](C)(N)[C@H](O)[C@H](C)O2)Oc2ccc(cc2Cl)[C@H]1O` [Vancomycin, Vancomycin hydrochloride]?
**A.** MIC ([1]; Staphylococcus aureus): 2 mg/L; effect on bacterial load at the skin lesion site [2, 6]: did not have any significant effect on the bacterial load; effect on bacterial load at the skin lesion site ([2]; 10 mg/kg/day i.v. for 5 days, n = 8, listed as vancomycin): did not show any statistical significance to vehicle control; reduction in viable cells (S. aureus ATCC 33591; 0.5× MIC): negligible differences between the vehicle control and the treatment groups; time needed for a 2-log reduction in CFUs (S. aureus ATCC 33591; 1× and 2× MIC): 8 hours; time until viable cell counts dropped below the detection limit (S. aureus ATCC 33591; 2× MIC): more than 8 h; viable cells at 18 and 24 h post-administration (S. aureus ATCC 33591; 2× MIC): no viable cells; MIC (clinical MRSA isolates; MRSA / USA300, strain USA300, in broth): 2 mg/L; MIC (clinical MRSA isolates; MRSA, strain 602, in broth): 2 mg/L; MIC (clinical MRSA isolates; MRSA, strain 611, in broth): 2 mg/L; MIC (clinical MRSA isolates; MRSA, strain 616, in broth): 2 mg/L; MIC (clinical MRSA isolates; MRSA, strain 631, in broth): 2 mg/L; MIC (clinical MRSA isolates; MRSA, strain 640, in broth): 1 mg/L; MIC (clinical MRSA isolates; MRSA, strain 641, in broth): 2 mg/L; MIC (clinical MRSA isolates; MRSA, strain 644, in broth): 2 mg/L; MIC (clinical MRSA isolates; MRSA, strain 30476, in broth): 2 mg/L; MIC (clinical MRSA isolates; MRSA, strain 31225, in broth): 1 mg/L; MIC (clinical MRSA isolates; MRSA, strain 31258, in broth): 1 mg/L; MIC (clinical MRSA isolates; MRSA, strain CA347, in broth): 2 mg/L; MIC (clinical MRSA isolates; MRSA, strain CA513, in broth): 4 mg/L; MIC (clinical MRSA isolates; MRSA, strain CA-409, in broth): 2 mg/L; MIC (clinical MRSA isolates; MRSA, strain CO-34, in broth): 2 mg/L; MIC (clinical MRSA isolates; MRSA, strain GA442, in broth): 4 mg/L; MIC (clinical MRSA isolates; MRSA, strain HFH30364, in broth): 2 mg/L; MIC (clinical MRSA isolates; MRSA, strain HFH30522, in broth): 1 mg/L; MIC (clinical MRSA isolates; MRSA, strain N315, in broth): 2 mg/L; MIC (clinical MRSA isolates; MRSA, strain SAEH06, in broth): 0.5 mg/L; survival at 12 h post-infection [3]: 75.0%; survival at 24 h post-infection [3]: 50%

**Q.** For `CC(=O)O[C@H]1C[C@@]2(C)[C@@H](C[C@@H](O)[C@H]3[C@@]4(C)CC[C@@H](O)[C@@H](C)[C@@H]4CC[C@@]32C)/C1=C(\CCC=C(C)C)C(=O)O` [Fusidic acid], which MIC [1, 7] is on record?
**A.** 1 mg/L (≈ 1.94 µM)

**Q.** What about the “log reduction in bacterial load compared to the vehicle control group” value ([4]; 10 mg/kg/day topical for 6 days, not statistically significant) of the same compound?
**A.** 2.17 log

**Q.** What about the “Group mean (±SE) of log CFU/infection site” value [4] of the same compound?
**A.** 3.16 ± 0.50 log CFU/infection site

**Q.** And the “Group mean (±SE) of log CFU/infection site” value ([4]; listed as fusidic acid)?
**A.** 3.16 log CFU/infection site

**Q.** With mutacin 1140 [Mu1140] as the compound, how does the MIC ([1]; MRSA 33591, in broth) read?
**A.** 0.5 mg/L

**Q.** And the “MIC compared to fusidic acid and linezolid” value ([1]; S. aureus 33591)?
**A.** two-fold lower

**Q.** What about the “MIC compared to vancomycin” value ([1]; S. aureus 33591) of the same compound?
**A.** four-fold lower

**Q.** And the “effect on bacterial load at the skin lesion site” value [2, 6]?
**A.** statistically significant reduction in CFUs

**Q.** What about the “mean difference in bacteria load to the vehicle control group” value ([2]; 10 mg/kg/day i.v. for 5 days, Cohen's d = 1.27, p = 0.0265) of the same compound?
**A.** 0.61 log CFU

**Q.** What about the “bacteria count at the lesion” value ([2]; 10 mg/kg/day i.v. twice daily for 5 days from 48 h post-infection, n = 8, vehicle control 7.82) of the same compound?
**A.** 7.21 log CFU

**Q.** And the “Group mean (±SE) of log CFU/infection site” value [4]?
**A.** 5.23 log CFU/infection site and 5.23 ± 0.93 log CFU/infection site

**Q.** And the “log reduction in CFUs (mean difference to vehicle control)” value ([5]; 25 mg/kg/day subq)?
**A.** 0.78 log

**Q.** What about the “survival at 12 h post-infection” value [3] of the same compound?
**A.** 100%

**Q.** And the “survival at 24 h post-infection” value [3]?
**A.** 83.3%

**Q.** Which “effect on bacterial load at the lesion site” value ([2]; 25 mg/kg i.v. dose, same experimental conditions, data not shown) does the source give for daptomycin here?
**A.** no impact on the bacterial load

**Q.** Which results are given for `CC(=O)NC[C@H]1CN(c2ccc(N3CCOCC3)c(F)c2)C(=O)O1` [Linezolid, linezolid]?
**A.** MIC [1, 7]: 1 mg/L (≈ 2.96 µM); log reduction in CFUs (mean difference to vehicle control) ([5]; 75 mg/kg/day subq): 0.6 log; log reduction in CFUs (mean difference to vehicle control) ([5]; 75 mg/kg/day subq, listed as linezolid): 0.60 log
